Assay results from patent US11590139B2, “Substituted aminopurine compounds, compositions thereof, and methods of treatment therewith” (Signal Pharmaceuticals, LLC, priority 2014, dated 2023).

tested on: Lox-IMVI melanoma cell line; assay: Lox-IMVI anti-proliferative assay (growth inhibition, Cell Titer-Glo); assay type: cell-based, human; conditions: Homo sapiens; Lox-IMVI melanoma cell line, anti-proliferative assay; read-out: Activity (IC50 activity level)
Outline: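 Luminescence from cellular ATP measured viability at compound addition and again after 72 h of exposure (37 °C, 5% CO2, RPMI + 10% FBS). Doses spanned 0.5 nM to 10 μM in ten 3-fold steps with 0.2% DMSO. Values were fitted as % of DMSO-treated cells by sigmoidal dose-response.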

Row | Structure (SMILES) | IC50
1 | NC(=O)[C@H]1CC[C@@H](n2c(Nc3c(Cl)cc(Cl)cc3Cl)nc3cnc(NC[C@@H]4CCCC[C@H]4O)nc32)CC1 [Example 661, (1R,4s)-4-(2-(((1S,2R)-2-hydroxycyclohexyl)methylamino)-8-(2,4,6-trichlorophenylamino)-9H-purin-9-yl)cyclohexanecarboxamide] | > 1 µM
2 | NC(=O)[C@H]1CC[C@@H](n2c(Nc3c(F)cc(Cl)cc3Cl)nc3cnc(NC[C@@H]4CCCC[C@H]4O)nc32)CC1 [Example 662, (1R,4s)-4-(8-(2,4-dichloro-6-fluorophenylamino)-2-(((1S,2R)-2-hydroxycyclohexyl)methylamino)-9H-purin-9-yl)cyclohexanecarboxamide] | > 1 µM
3 | NC(=O)[C@H]1CC[C@@H](n2c(Nc3c(F)cc(Cl)cc3F)nc3cnc(NC[C@@H]4CCCC[C@H]4O)nc32)CC1 [Example 663, (1R,4s)-4-(8-(4-chloro-2,6-difluorophenylamino)-2-(((1S,2R)-2-hydroxycyclohexyl)methylamino)-9H-purin-9-yl)cyclohexanecarboxamide] | > 1 µM
4 | N#Cc1cc(F)c(Nc2nc3cnc(NC[C@@H]4CCCC[C@H]4O)nc3n2[C@H]2CC[C@@H](C(N)=O)CC2)c(Cl)c1 [Example 664, (1R,4s)-4-(8-(2-chloro-4-cyano-6-fluorophenylamino)-2-(((1S,2R)-2-hydroxycyclohexyl)methylamino)-9H-purin-9-yl)cyclohexanecarboxamide] | > 1 µM
5 | N#Cc1cc(Cl)c(Nc2nc3cnc(NC[C@@H]4CCCC[C@H]4O)nc3n2[C@H]2CC[C@@H](C(N)=O)CC2)c(Cl)c1 [Example 665, (1R,4s)-4-(8-(2,6-dichloro-4-cyanophenylamino)-2-(((1S,2R)-2-hydroxycyclohexyl)methylamino)-9H-purin-9-yl)cyclohexanecarboxamide] | > 1 µM
6 | C[C@]1(C(N)=O)CC[C@@H](n2c(Nc3c(Cl)cc(C#N)cc3Cl)nc3cnc(NC4CC(F)(F)C4)nc32)CC1 [Example 666, (1s,4s)-4-(8-(2,6-dichloro-4-cyanophenylamino)-2-(3,3-difluorocyclobutylamino)-9H-purin-9-yl)-1-methylcyclohexanecarboxamide] | < 0.25 µM
7 | NC(=O)[C@H]1CC[C@@H](n2c(Nc3c(F)cc(Cl)cc3Cl)nc3cnc(NC4CCC(N5C(=O)CCC5=O)CC4)nc32)CC1 (stereo partly drawn) [Example 667, (1s,4s)-4-(8-(2,4-dichloro-6-fluorophenylamino)-2-(4-(2,5-dioxopyrrolidin-1-yl)cyclohexylamino)-9H-purin-9-yl)cyclohexanecarboxamide] | > 1 µM
8 | N#Cc1cc(Cl)c(Nc2nc3cnc(NC4CCC(N5C(=O)CCC5=O)CC4)nc3n2[C@H]2CC[C@@H](C(N)=O)CC2)c(Cl)c1 (stereo partly drawn) [Example 668, (1s,4s)-4-(8-(2,6-dichloro-4-cyanophenylamino)-2-(4-(2,5-dioxopyrrolidin-1-yl)cyclohexylamino)-9H-purin-9-yl)cyclohexanecarboxamide] | > 1 µM
9 | N#Cc1cc(F)c(Nc2nc3cnc(N[C@H]4CCOC[C@H]4F)nc3n2[C@H]2CC[C@@H](C(N)=O)CC2)c(F)c1 [Example 669, (1R,4s)-4-(8-(4-cyano-2,6-difluorophenylamino)-2-((3S,4S)-3-fluorotetrahydro-2H-pyran-4-ylamino)-9H-purin-9-yl)cyclohexanecarboxamide] | 0.5 to 1 µM
10 | N#Cc1cc(F)c(Nc2nc3cnc(N[C@H]4CCOC[C@H]4F)nc3n2[C@H]2CC[C@@H](C(N)=O)CC2)c(Cl)c1 [Example 670, (1R,4s)-4-(8-(2-chloro-4-cyano-6-fluorophenylamino)-2-((3S,4S)-3-fluorotetrahydro-2H-pyran-4-ylamino)-9H-purin-9-yl)cyclohexanecarboxamide] | < 0.25 µM
11 | NC(=O)[C@H]1CC[C@@H](n2c(Nc3c(F)cc(Cl)cc3F)nc3cnc(N[C@@H]4CCOC[C@H]4F)nc32)CC1 [Example 671, (1S,4s)-4-(8-(4-chloro-2,6-difluorophenylamino)-2-((3S,4R)-3-fluorotetrahydro-2H-pyran-4-ylamino)-9H-purin-9-yl)cyclohexanecarboxamide] | < 0.25 µM
12 | NC(=O)[C@H]1CC[C@@H](n2c(Nc3c(F)cc(Cl)cc3F)nc3cnc(N[C@H]4CCOC[C@H]4F)nc32)CC1 [Example 672, (1R,4s)-4-(8-(4-chloro-2,6-difluorophenylamino)-2-((3S,4S)-3-fluorotetrahydro-2H-pyran-4-ylamino)-9H-purin-9-yl)cyclohexanecarboxamide] | < 0.25 µM
13 | C[C@]1(C(N)=O)CC[C@@H](n2c(Nc3c(F)cc(F)cc3Cl)nc3cnc(NC4CCOCC4)nc32)CC1 [Example 673, (1s,4s)-4-(8-(2-chloro-4,6-difluorophenylamino)-2-(tetrahydro-2H-pyran-4-ylamino)-9H-purin-9-yl)-1-methylcyclohexanecarboxamide] | < 0.25 µM
14 | C[C@]1(C(N)=O)CC[C@@H](n2c(Nc3c(F)cc(Cl)cc3Cl)nc3cnc(NC4CCOCC4)nc32)CC1 [Example 674, (1s,4s)-4-(8-(2,4-dichloro-6-fluorophenylamino)-2-(tetrahydro-2H-pyran-4-ylamino)-9H-purin-9-yl)-1-methylcyclohexanecarboxamide] | < 0.25 µM
15 | C[C@]1(C(N)=O)CC[C@@H](n2c(Nc3c(Cl)cc(F)cc3Cl)nc3cnc(NC4CCOCC4)nc32)CC1 [Example 675, (1s,4s)-4-(8-(2,6-dichloro-4-fluorophenylamino)-2-(tetrahydro-2H-pyran-4-ylamino)-9H-purin-9-yl)-1-methylcyclohexanecarboxamide] | < 0.25 µM
16 | NC(=O)[C@H]1CC[C@@H](n2c(Nc3c(F)cc(Cl)cc3Cl)nc3cnc(NC4CCC(c5ncno5)CC4)nc32)CC1 (stereo partly drawn) [Example 676, (1s,4s)-4-(2-(4-(1,2,4-oxadiazol-5-yl)cyclohexylamino)-8-(2,4-dichloro-6-fluorophenylamino)-9H-purin-9-yl)cyclohexanecarboxamide] | > 1 µM
17 | NC(=O)[C@H]1CC[C@@H](n2c(Nc3c(F)cc(F)cc3Cl)nc3cnc(NC4CCC(c5ncno5)CC4)nc32)CC1 (stereo partly drawn) [Example 677, (1s,4s)-4-(2-(4-(1,2,4-oxadiazol-5-yl)cyclohexylamino)-8-(2-chloro-4,6-difluorophenylamino)-9H-purin-9-yl)cyclohexanecarboxamide] | > 1 µM
18 | NC(=O)[C@H]1CC[C@@H](n2c(Nc3c(Cl)cc(Cl)cc3Cl)nc3cnc(NC4CCC(c5ncno5)CC4)nc32)CC1 (stereo partly drawn) [Example 678, (1s,4s)-4-(2-(4-(1,2,4-oxadiazol-5-yl)cyclohexylamino)-8-(2,4,6-trichlorophenylamino)-9H-purin-9-yl)cyclohexanecarboxamide] | > 1 µM
19 | NC(=O)[C@H]1CC[C@@H](n2c(Nc3c(Cl)cc(F)cc3Cl)nc3cnc(NC4CCC(c5ncno5)CC4)nc32)CC1 (stereo partly drawn) [Example 679, (1s,4s)-4-(2-(4-(1,2,4-oxadiazol-5-yl)cyclohexylamino)-8-(2,6-dichloro-4-fluorophenylamino)-9H-purin-9-yl)cyclohexanecarboxamide] | > 1 µM
20 | N#Cc1cc(F)c(Nc2nc3cnc(NC4CCC(c5ncno5)CC4)nc3n2[C@H]2CC[C@@H](C(N)=O)CC2)c(Cl)c1 (stereo partly drawn) [Example 680, (1s,4s)-4-(2-(4-(1,2,4-oxadiazol-5-yl)cyclohexylamino)-8-(2-chloro-4-cyano-6-fluorophenylamino)-9H-purin-9-yl)cyclohexanecarboxamide] | > 1 µM
21 | N#Cc1cc(Cl)c(Nc2nc3cnc(NC4CCC(c5ncno5)CC4)nc3n2[C@H]2CC[C@@H](C(N)=O)CC2)c(Cl)c1 (stereo partly drawn) [Example 681, (1s,4s)-4-(2-(4-(1,2,4-oxadiazol-5-yl)cyclohexylamino)-8-(2,6-dichloro-4-cyanophenylamino)-9H-purin-9-yl)cyclohexanecarboxamide] | > 1 µM
22 | N#Cc1cc(F)c(Nc2nc3cnc(N[C@@H]4CCC(O)C4)nc3n2[C@H]2CC[C@@H](C(N)=O)CC2)c(Cl)c1 (stereo partly drawn) [Example 682, (1S,4s)-4-(8-(2-chloro-4-cyano-6-fluorophenylamino)-2-((1R,3R)-3-hydroxycyclopentylamino)-9H-purin-9-yl)cyclohexanecarboxamide] | < 0.25 µM
23 | N#Cc1cc(Cl)c(Nc2nc3cnc(N[C@@H]4CCC(O)C4)nc3n2[C@H]2CC[C@@H](C(N)=O)CC2)c(Cl)c1 (stereo partly drawn) [Example 683, (1S,4s)-4-(8-(2,6-dichloro-4-cyanophenylamino)-2-((1R,3R)-3-hydroxycyclopentylamino)-9H-purin-9-yl)cyclohexanecarboxamide] | < 0.25 µM
24 | N#Cc1cc(Cl)c(Nc2nc3cnc(N[C@@H]4CCC[C@@H](O)C4)nc3n2[C@H]2CC[C@@H](C(N)=O)CC2)c(Cl)c1 [Example 684, (1S,4s)-4-(8-(2,6-dichloro-4-cyanophenylamino)-2-((1R,3R)-3-hydroxycyclohexylamino)-9H-purin-9-yl)cyclohexanecarboxamide] | 0.5 to 1 µM
25 | N#Cc1cc(F)c(Nc2nc3cnc(N[C@@H]4CCC[C@@H](O)C4)nc3n2[C@H]2CC[C@@H](C(N)=O)CC2)c(Cl)c1 [Example 685, (1S,4s)-4-(8-(2-chloro-4-cyano-6-fluorophenylamino)-2-((1R,3R)-3-hydroxycyclohexylamino)-9H-purin-9-yl)cyclohexanecarboxamide] | 0.5 to 1 µM
26 | N#Cc1cc(Cl)c(Nc2nc3cnc(N[C@H]4CCC[C@@H](O)C4)nc3n2[C@H]2CC[C@@H](C(N)=O)CC2)c(Cl)c1 [Example 686, (1R,4s)-4-(8-(2,6-dichloro-4-cyanophenylamino)-2-((1S,3R)-3-hydroxycyclohexylamino)-9H-purin-9-yl)cyclohexanecarboxamide] | 0.5 to 1 µM
27 | N#Cc1cc(F)c(Nc2nc3cnc(N[C@H]4CCC[C@@H](O)C4)nc3n2[C@H]2CC[C@@H](C(N)=O)CC2)c(Cl)c1 [Example 687, (1R,4s)-4-(8-(2-chloro-4-cyano-6-fluorophenylamino)-2-((1S,3R)-3-hydroxycyclohexylamino)-9H-purin-9-yl)cyclohexanecarboxamide] | > 1 µM
